In this assay the test system is CEM cells HIV-1 protection, formazan growth assay. The assay is described as follows: NCI AIDS Antiviral Assay. Conditions: for IC50: measured here: growth of uninfected CEM cells. The gist of the method:
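Steps: treat uninfected and HIV-1-infected human CEM cells at five drug levels; quantify growth by soluble formazan; retest any compound reaching 50% protection; classify actives from the retest.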

The source made the active and inactive calls.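 The calls were made as follows: active = compounds giving half or more protection of infected cells from virus-caused growth loss, again on retest; inactive = the rest.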

Turning to `ClCCN1CCOC1=Nc1ccc2c(c1)CCCC2`, the EC50 was over 200 µM and the concentration for half-maximal inhibition (IC50) was determined as 43.7 µM.

Turning to `CN(C)C(=S)/N=c1\ssc(=S)n1C1CCCCC1`, the result was inactive.

With `CCCCCCCCCCCCCCCCCC(=O)OCC(COC1OC(COS(=O)(=O)O)C(O)C(O)C1O)OC(=O)CCCCCCCCCCCCCCCCC` (stereo not given), the result was inactive.

For the compound `CP(=O)(O)C(N)Cc1c[nH]c2ccccc12` (stereo not given), the EC50 is over 100 µM and the concentration for half-maximal inhibition (IC50) was over 100 µM.

As for `COc1nc(N)c(C#N)c(C#N)c1C#N`, the EC50 is over 200 µM and the IC50 was over 200 µM.

As to `CC(=O)Nc1ccc(-c2nnc(SCC(=O)Nc3ccc(Cl)cc3)o2)cc1`, the EC50 is over 89.1 µM and the half-inhibitory concentration (IC50) worked out at 5.01 µM.

`CN(C)C=Nc1ccc2nonc2c1`: the EC50 was over 200 µM and the half-maximal inhibitory concentration (IC50) stood at 151 µM.

Regarding `COC(=O)NC(C(F)(F)F)(C(F)(F)F)P1(=O)OCCCO1`, the EC50 is over 200 µM and the IC50 worked out at 63.1 µM.

Take `O=c1c2ccccc2c(=O)n2n1-c1cccc(c1)CSSCc1cccc-2c1`: the outcome was inactive.

With `CN(C)C(c1ccccc1)C(O)c1ccccc1` (stereo not given), the result was inactive.

For the compound `CCOC(=O)CC1(c2ccccc2)OC(=O)c2ccccc21` (stereo not given), the outcome was inactive.

Take `Cc1cc(=O)n(CC(=O)O)c2ccccc12`: the EC50 was over 200 µM and the IC50 amounted to 105 µM.

Take `O=C(c1c(O)cc(O)cc1O)C1Cc2ccccc21` (stereo not given): the result was inactive.

Consider `CCOP(=O)(OCC)/C(C#N)=C/c1ccccn1`, for which the EC50 is 148 µM and the IC50 was over 200 µM.

As to `COc1cc(O)c2c(=O)c(OC)c(-c3ccc4c(c3)OCO4)oc2c1`, the EC50 was over 200 µM and the 50% inhibitory concentration (IC50) is over 200 µM.

For the compound `COC(=O)CC(C(C(C)=O)C(=O)OCc1ccccc1)N1C(=O)OC(c2ccccc2)C1c1ccccc1` (stereo not given), the EC50 is over 83.2 µM and the IC50 is over 83.2 µM.

Consider `O=C(/C=C/c1cc(F)ccc1F)OCCc1ccccc1`, for which the result was inactive and the IC50 amounted to 141 µM.

Consider `Cc1cccc(Nc2nc(NNC(=O)Cc3ccccc3)nc(NNC(=O)c3ccncc3)n2)c1`, for which the EC50 was over 100 µM and the IC50 is over 100 µM.

Consider `c1ccc(-c2cc(-c3cc(-c4ccccc4)n(-c4ccccc4)n3)nn2-c2ccccc2)cc1`, for which the EC50 was over 100 µM and the IC50 was over 100 µM.

Take `NNC(=O)CCC(=O)Nc1cc(Cl)c(Cl)cc1Cl`: the EC50 is over 115 µM and the half-inhibitory concentration (IC50) is over 115 µM.

In the case of `O=[N+]([O-])c1cc(I)cc(/C=N/NS(=O)(=O)c2ccc(F)cc2)c1O`, the EC50 is over 389 µM and the concentration for half-maximal inhibition (IC50) worked out at 67.6 µM.

On to `COc1csc([C@H]2CCC3[C@@H]4CC=C5C[C@@H](OC(=O)CCC(=O)O)CC[C@]5(C)C4CC[C@@]32C)n1` (stereo not given in full), for which the EC50 was over 51.3 µM and the IC50 was 32.4 µM.

Regarding `C/C=C1\CN2CCc3c([nH]c4ccccc34)C2CC1C(=O)OC` (stereo not given), the EC50 is over 219 µM and the IC50 was over 219 µM.

In the case of `N[C@@H](CSSC[C@H](N)C(=O)OCc1ccccc1)C(=O)OCc1ccccc1`, the EC50 was over 200 µM and the half-inhibitory concentration (IC50) is 83.2 µM.

For the compound `C=CCc1cc2c(cc1COCOCCOCCOCCCC)OCO2`, the EC50 is over 200 µM and the half-inhibitory concentration (IC50) amounted to 44.7 µM.

Take `O=c1c2ccccc2[se]n1-c1ccc(I)cc1`: the EC50 is over 11 µM and the IC50 was found to be 10.7 µM.

As for `O=C(/C=C/c1ccsc1)c1ccsc1`, the EC50 is over 200 µM and the half-maximal inhibitory concentration (IC50) was found to be 3.39 µM.

Consider `COc1cc(OC)c2c(c1)OC(c1ccccc1)CC2=O` (stereo not given), for which the EC50 was over 200 µM and the concentration for half-maximal inhibition (IC50) was over 200 µM.

Regarding `CCC1([N+](=O)[O-])COP(N)(=O)OC1` (stereo not given), the EC50 was over 427 µM and the half-maximal inhibitory concentration (IC50) was determined as 31.6 µM.

`CC(C)c1cccc(C(C)C)c1O`: the EC50 is over 200 µM and the IC50 is over 200 µM.

Turning to `FC(F)(F)c1ccc(C2ON=C(c3ccccc3)N2C23CC4CC(CC(C4)C2)C3)cc1` (stereo not given), the EC50 is over 200 µM and the half-maximal inhibitory concentration (IC50) is over 200 µM.

With `CCOC(=O)COc1ccc(S(=O)(=O)c2ccc(OCC(=O)OCC)cc2)cc1`, the EC50 was over 200 µM and the half-inhibitory concentration (IC50) is over 200 µM.

As for `Cc1cn(COCCCO)c(=O)[nH]c1=O`, the EC50 is over 200 µM and the IC50 is over 200 µM.

With `O=C1c2ccc3cc(CCl)cc(O)c3c2C(=O)c2cccc(O)c21`, the EC50 is over 200 µM and the IC50 was determined as 5.25 µM.

Regarding `COc1cc2c(cc1O)N=C[C@@H]1CCC(O)N1C2=O` (mixture of isomers), the EC50 was over 324 µM and the IC50 is 0.575 µM.

In the case of `CC(C)(C)C1CCC2c3c([nH]c4ccccc34)C3C(=O)N(c4cccc([N+](=O)[O-])c4)C(=O)C3C2C1` (stereo not given), the EC50 was over 200 µM and the concentration for half-maximal inhibition (IC50) was found to be 4.79 µM.

`Nc1nc(Cl)cc(NCC2CC(O)(CO)C2)n1` (stereo not given): the EC50 is over 200 µM and the half-inhibitory concentration (IC50) is over 200 µM.

For `O=C(COc1ccccc1Cl)N1N=C(c2ccccc2)CC1(O)c1ccccc1` (stereo not given), the EC50 was over 24.5 µM and the IC50 was over 24.5 µM.

Turning to `OCC(O)CC[CH2][Sn]([Br])([c]1ccccc1)[c]1ccccc1` (stereo not given), the result was inactive.

`Nc1ncnc2c1ncn2C1C=CC(=O)CC1` (stereo not given): the EC50 is over 31.6 µM and the IC50 came to 5.62 µM.

For the compound `CCN(CC)CCNC(=O)c1ccccc1NC(=O)C(=O)Nc1ccccc1C(=O)NCCN(CC)CC`, the EC50 was over 6.92 µM and the IC50 is over 6.92 µM.

Consider `Nc1ccc(Cl)c(-c2nc3ccccc3[nH]2)c1`, for which the EC50 was over 77.6 µM and the concentration for half-maximal inhibition (IC50) was over 77.6 µM.

Take `O=CCCCCCOCc1ccccc1`: the EC50 is over 200 µM and the IC50 worked out at 3.47 µM.

As to `c1ccc2c(c1)CCN2CCc1c[nH]c2ccccc12`, the EC50 was over 200 µM and the half-inhibitory concentration (IC50) turned out to be 178 µM.

Turning to `C1=CC2CC1C1C(=C3Sc4ccccc4S3)c3nccnc3C(=C3Sc4ccccc4S3)C21` (stereo not given), the EC50 was over 14.5 µM and the IC50 was over 14.5 µM.

Consider `COc1cc2cc3c4cc(OC)c(OC)cc4cc(C)[n+]3cc2cc1OC`, for which the outcome was inactive.

With `COc1ccc2[nH]c3c(c2c1)[C@H](C)C[C@@H]1C(=O)N(c2ccccc2)C(=O)[C@H]31`, the outcome was inactive.

For `S=C1N(c2ccc(Cl)cc2)C2=C(N=Nc3ccccc3)C(=Nc3ccccc3S2)N1c1ccccn1`, the EC50 was over 50.1 µM and the IC50 is 10 µM.

With `CCCCC#C[I+]c1ccccc1`, the outcome was inactive.

`COC(=O)/C=C/c1c[nH]c2nccnc12`: the EC50 is over 166 µM and the half-inhibitory concentration (IC50) was 53.7 µM.

For `C#CC1(O)CCC2[C@@H]3CCc4cc(Oc5nc(F)nc(-c6c7ccccc7c(SCC)n6CCC)n5)ccc4C3CC[C@@]21C` (stereo not given in full), the EC50 is over 6.17 µM and the IC50 is over 6.17 µM.

Consider `C=CC(CCC(C)O)[Si](C)(C)C` (stereo not given), for which the EC50 was over 977 µM and the IC50 was over 977 µM.

For `O=Nn1ccccc1=Nc1ccccc1`, the EC50 was over 200 µM and the IC50 was found to be 117 µM.

On to `Cc1cc(NC(=O)Nc2cc(F)ccc2F)no1`, for which the EC50 was over 200 µM and the IC50 was found to be 123 µM.

As to `Nc1ccc(C2=N/C(=C\c3cccc(N)c3)C(=O)O2)cc1`, the result was inactive.

Take `O=c1n(CCCN2CCOCC2)nc2n1-c1ccc3ccccc3c1SC2`: the EC50 is over 200 µM and the 50% inhibitory concentration (IC50) is 33.9 µM.

As to `c1cncc(-c2ncc3cccnc3n2)c1`, the EC50 is over 100 µM and the concentration for half-maximal inhibition (IC50) was over 100 µM.

For `CCCS(=O)(=O)O`, the EC50 was over 200 µM and the IC50 is over 200 µM.

Consider `c1cc2nnc1SCCSCCSc1ccc(nn1)SCCSCCS2`, for which the EC50 is over 200 µM and the concentration for half-maximal inhibition (IC50) is over 200 µM.

Compound `CC(=O)N1OC(C)CC1Nc1ccc(Br)cc1` (stereo not given) gave a half-maximal effective concentration (EC50) of over 200 µM and an IC50 of 25.1 µM.

Turning to `COC(=O)[C@@H]1N2C(=O)C=NO[C@H]2SC1(C)C`, the EC50 was over 1020 µM and the IC50 was over 1020 µM.

Turning to `CC(CNCCCNCCNCCCNCO)[N+](=O)[O-]` (stereo not given), the result was inactive.

With `c1cc2c3c(c1)ncn3C[C@@H]1CCCN1C2`, the EC50 was over 295 µM and the IC50 is over 295 µM.

As for `O=C(CCCCCCCCC(=O)NCC1(c2ccccc2)CCNCC1)NCC1(c2ccccc2)CCNCC1`, the EC50 was over 100 µM and the IC50 was over 100 µM.

Regarding `O=C(NNc1nc(-c2ccccc2)cs1)C(F)(F)F`, the EC50 is over 200 µM and the IC50 stood at 44.7 µM.

Turning to `O=CC(O)C(O)C(O)C(O)COC(=O)NCCCCC(=O)C(F)(F)C(F)(F)C(F)(F)C(F)(F)C(F)(F)C(F)(F)C(F)(F)F` (stereo not given), the EC50 is over 200 µM and the half-inhibitory concentration (IC50) is 24 µM.

Turning to `CNC(=O)CNC(=O)c1ccccc1SC(=O)CCCC[n+]1ccccc1`, the EC50 was 1.95 µM and the concentration for half-maximal inhibition (IC50) was 22.9 µM.

Regarding `CCOC(=O)c1c(C)[nH]c(=S)c(C#N)c1-c1ccco1`, the EC50 is over 200 µM and the IC50 was determined as 81.3 µM.

For `CC1(C)CN(C(=O)OCc2ccccc2)[C@@H]2N1C(=O)[C@@]2(C)OCCCO[C@@]1(C)C(=O)N2[C@@H]1N(C(=O)OCc1ccccc1)CC2(C)C`, the EC50 is over 200 µM and the IC50 stood at 26.9 µM.

Turning to `O=C1CCCc2sccc21`, the EC50 is over 200 µM and the IC50 is over 200 µM.

As to `COc1ccc(C2NC(=O)N3C(c4ccc(OC)c(OC)c4)NC(=O)N23)cc1OC` (stereo not given), the EC50 was over 200 µM and the half-inhibitory concentration (IC50) was over 200 µM.

In the case of `CC1=C(O)C(=O)C2C(=O)C1C(C)C2c1ccccc1` (stereo not given), the EC50 was over 195 µM and the IC50 is over 195 µM.

Consider `CC1(C)SCc2nc3ncccc3n21`, for which the EC50 is over 1230 µM and the IC50 was 617 µM.

Turning to `COC(=O)C1CCC(=S)N1C(=O)OCc1ccccc1` (stereo not given), the EC50 is over 200 µM and the half-maximal inhibitory concentration (IC50) was over 200 µM.

`COC(=O)CCC(NC(=O)OC(C)(C)C)C(=O)NC(Cc1ccc(NC(=O)CCCC(C)=O)cc1)C(=O)NC(CCC(=O)OC)C(=O)OC` (stereo not given): the EC50 was over 100 µM and the IC50 was over 100 µM.

Regarding `CSc1ccc(NC(=O)Nc2cc(C)cc(C)n2)cc1`, the EC50 is over 200 µM and the concentration for half-maximal inhibition (IC50) is over 200 µM.

The values are drawn from PubChem BioAssay AID179 (DTP/NCI, 2004).
